In this experiment the target is NaV 1.8 channel (Homo sapiens, UniProt Q9Y5Y9). Put plainly: Activity against NaV 1.8 channel (optical membrane potential assay). Type of experiment: cell-based. Summed up: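 FRET membrane-potential assay (coumarin CC2-DMPE donor, oxonol DiSBAC2(3) acceptor plus veratridine) on VIPR; compound added with oxonol for 20–30 min before Na+ add-back stimulation. Activity from background-subtracted 460/580 nm ratio change (baseline 2–7 s, response 15–24 s) relative to tetracaine positive and drug-free negative controls.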

The text below walks through data of patent publication US7928107B2, “Quinazolines useful as modulators of ion channels” (Vertex Pharmaceuticals Incorporated, priority 2004, dated 2011).

Sequence of NaV 1.8 channel (Q9Y5Y9 whole entry): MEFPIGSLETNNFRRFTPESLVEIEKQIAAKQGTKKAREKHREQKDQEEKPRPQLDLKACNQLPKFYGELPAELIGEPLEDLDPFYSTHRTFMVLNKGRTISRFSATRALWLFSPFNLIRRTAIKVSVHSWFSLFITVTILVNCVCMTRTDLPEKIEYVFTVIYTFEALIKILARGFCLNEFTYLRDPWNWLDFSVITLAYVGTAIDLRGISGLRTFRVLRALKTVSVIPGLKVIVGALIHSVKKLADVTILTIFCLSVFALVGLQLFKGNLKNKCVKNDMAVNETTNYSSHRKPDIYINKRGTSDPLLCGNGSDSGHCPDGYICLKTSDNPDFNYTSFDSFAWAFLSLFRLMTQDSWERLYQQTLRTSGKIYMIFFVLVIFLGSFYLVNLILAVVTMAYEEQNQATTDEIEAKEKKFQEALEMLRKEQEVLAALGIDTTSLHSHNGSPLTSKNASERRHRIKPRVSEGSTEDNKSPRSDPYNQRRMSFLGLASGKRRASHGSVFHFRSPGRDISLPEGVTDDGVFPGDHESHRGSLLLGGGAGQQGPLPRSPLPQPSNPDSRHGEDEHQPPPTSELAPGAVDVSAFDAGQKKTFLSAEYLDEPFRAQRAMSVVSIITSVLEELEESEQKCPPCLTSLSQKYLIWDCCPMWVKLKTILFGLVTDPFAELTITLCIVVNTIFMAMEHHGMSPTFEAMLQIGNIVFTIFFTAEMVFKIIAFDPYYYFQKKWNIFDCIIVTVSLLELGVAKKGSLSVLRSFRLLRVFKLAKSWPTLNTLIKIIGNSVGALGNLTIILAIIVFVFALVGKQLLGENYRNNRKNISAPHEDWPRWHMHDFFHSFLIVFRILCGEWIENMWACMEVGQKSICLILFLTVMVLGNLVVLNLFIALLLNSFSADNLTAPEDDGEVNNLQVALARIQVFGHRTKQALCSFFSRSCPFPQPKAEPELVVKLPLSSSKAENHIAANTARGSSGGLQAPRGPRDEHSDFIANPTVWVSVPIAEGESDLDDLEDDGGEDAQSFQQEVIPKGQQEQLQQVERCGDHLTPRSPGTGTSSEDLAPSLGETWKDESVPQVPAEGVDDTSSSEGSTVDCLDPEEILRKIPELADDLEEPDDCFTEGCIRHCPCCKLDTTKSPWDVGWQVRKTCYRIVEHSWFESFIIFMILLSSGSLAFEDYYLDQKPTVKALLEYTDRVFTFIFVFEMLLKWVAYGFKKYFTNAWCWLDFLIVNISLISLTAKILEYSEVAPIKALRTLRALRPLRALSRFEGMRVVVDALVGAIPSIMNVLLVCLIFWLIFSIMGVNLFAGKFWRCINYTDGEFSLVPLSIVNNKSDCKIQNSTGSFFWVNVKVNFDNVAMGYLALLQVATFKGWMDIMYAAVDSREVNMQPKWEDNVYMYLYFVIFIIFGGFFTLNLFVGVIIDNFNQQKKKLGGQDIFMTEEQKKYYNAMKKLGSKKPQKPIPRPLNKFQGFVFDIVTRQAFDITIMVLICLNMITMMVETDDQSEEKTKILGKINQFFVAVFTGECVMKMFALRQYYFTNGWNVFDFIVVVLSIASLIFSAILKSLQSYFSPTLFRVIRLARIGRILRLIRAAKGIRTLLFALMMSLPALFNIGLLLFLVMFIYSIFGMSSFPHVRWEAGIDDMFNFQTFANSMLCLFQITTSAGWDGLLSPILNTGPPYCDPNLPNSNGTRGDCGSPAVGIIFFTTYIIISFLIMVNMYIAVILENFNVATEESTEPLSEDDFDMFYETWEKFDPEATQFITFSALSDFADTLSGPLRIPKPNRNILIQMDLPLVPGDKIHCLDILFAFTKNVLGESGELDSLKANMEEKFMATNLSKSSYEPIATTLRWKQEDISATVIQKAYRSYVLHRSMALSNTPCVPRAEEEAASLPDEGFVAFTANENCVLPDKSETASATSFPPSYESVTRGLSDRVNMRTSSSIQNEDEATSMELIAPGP

As to `Cc1ccc2c(N3CC[C@@H](NC(=O)C(O)c4ccc(F)cc4)C3)nc(-c3ccccc3O)nc2c1` (stereo partly drawn) [Example 360, 2-(4-Fluorophenyl)-2-hydroxy-N—((R)-1-(2-(2-hydroxyphenyl)-7-methylquinazolin-4-yl)pyrrolidin-3-yl)acetamide], the IC50 was greater than 10 µM.

For the compound `Cc1ccc2c(N3CC[C@@H](NC(=O)[C@H](O)CC(C)(C)C)C3)nc(-c3ccccc3O)nc2c1` [Example 361, (2R)-2-Hydroxy-N—((R)-1-(2-(2-Hydroxyphenyl)-7-methylquinazolin-4-yl)pyrrolidin-3-yl)-4,4-dimethylpentanamide], the IC50 was in the range of 2 to 10 µM.

For `Cc1ccc2c(N3CC[C@H](CNC(=O)OCc4ccccc4)C3)nc(-c3ccccc3O)nc2c1` [Example 362, Benzyl ((R)-1-(2-(2-hydroxyphenyl)-7-methylquinazolin-4-yl)pyrrolidin-3-yl)methylcarbamate], the IC50 is greater than 10 µM.

In the case of `Cc1ccc2c(N3CC[C@@H](CNC(=O)OCc4ccccc4)C3)nc(-c3ccccc3O)nc2c1` [Example 363, Benzyl ((S)-1-(2-(2-hydroxyphenyl)-7-methylquinazolin-4-yl)pyrrolidin-3-yl)methylcarbamate], the IC50 fell in the range of 2 to 10 µM.

As for `CCOC(=O)NC[C@@H]1CCN(c2nc(-c3ccccc3O)nc3cc(C)ccc23)C1` [Example 364, Ethyl ((S)-1-(2-(2-hydroxyphenyl)-7-methylquinazolin-4-yl)pyrrolidin-3-yl)methylcarbamate], the IC50 is less than 2 µM.

On to `Cc1ccc2c(N3CC[C@@H](CNC(=O)OCC(C)C)C3)nc(-c3ccccc3O)nc2c1` [Example 365, Isobutyl ((S)-1-(2-(2-hydroxyphenyl)-7-methylquinazolin-4-yl)pyrrolidin-3-yl)methylcarbamate], for which the IC50 is less than 2 µM.

As for `COCCOC(=O)NC[C@@H]1CCN(c2nc(-c3ccccc3O)nc3cc(C)ccc23)C1` [Example 366, 2-Methoxyethyl ((S)-1-(2-(2-hydroxyphenyl)-7-methylquinazolin-4-yl)pyrrolidin-3-yl)methylcarbamate], the IC50 is 2 to 10 µM.

For `CCCOC(=O)NC[C@@H]1CCN(c2nc(-c3ccccc3O)nc3cc(C)ccc23)C1` [Example 367, Propyl ((S)-1-(2-(2-hydroxyphenyl)-7-methylquinazolin-4-yl)pyrrolidin-3-yl)methylcarbamate], the IC50 was less than 2 µM.

In the case of `Cc1ccc2c(N3CC[C@@H](CNC(=O)OC(C)C)C3)nc(-c3ccccc3O)nc2c1` [Example 368, Isopropyl ((S)-1-(2-(2-hydroxyphenyl)-7-methylquinazolin-4-yl)pyrrolidin-3-yl)methylcarbamate], the IC50 was 2 to 10 µM.

In the case of `Cc1ccc2c(N3CC[C@@H](CNC(=O)OCC(C)(C)C)C3)nc(-c3ccccc3O)nc2c1` [Example 369, Neopentyl ((S)-1-(2-(2-hydroxyphenyl)-7-methylquinazolin-4-yl)pyrrolidin-3-yl)methylcarbamate], the 50% inhibitory concentration (IC50) was less than 2 µM.

In the case of `Cc1ccc2c(N3CC[C@H](NC(=O)OC(C)(C)C)C3)nc(-c3ccccc3O)nc2c1` [Example 370, tert-Butyl (S)-1-(2-(2-hydroxyphenyl)-7-methylquinazolin-4-yl)pyrrolidin-3-ylcarbamate], the IC50 is less than 2 µM.

Consider `Cc1ccc2c(N3CC[C@@H](CNC(=O)OC(C)C)C3)nc(-c3c(O)cccc3F)nc2c1` [Example 371, Isopropyl ((S)-1-(2-(2-fluoro-6-hydroxyphenyl)-7-methylquinazolin-4-yl)pyrrolidin-3-yl)methylcarbamate], for which the IC50 is less than 2 µM.

Consider `Cc1ccc2c(N3CC[C@@H](CNC(=O)OCC(C)C)C3)nc(-c3c(O)cccc3F)nc2c1` [Example 372, Isobutyl ((S)-1-(2-(2-fluoro-6-hydroxyphenyl)-7-methylquinazolin-4-yl)pyrrolidin-3-yl)methylcarbamate], for which the IC50 is less than 2 µM.

In the case of `COCCOC(=O)NC[C@@H]1CCN(c2nc(-c3c(O)cccc3F)nc3cc(C)ccc23)C1` [Example 373, 2-Methoxyethyl ((S)-1-(2-(2-fluoro-6-hydroxyphenyl)-7-methylquinazolin-4-yl)pyrrolidin-3-yl)methylcarbamate], the IC50 was in the range of 2 to 10 µM.

Turning to `CCCOC(=O)NC[C@@H]1CCN(c2nc(-c3ccccc3O)nc3ccc(F)cc23)C1` [Example 374, Propyl ((S)-1-(6-fluoro-2-(2-hydroxyphenyl)quinazolin-4-yl)pyrrolidin-3-yl)methylcarbamate], the IC50 is greater than 10 µM.

In the case of `CC(C)(C)COC(=O)NC[C@@H]1CCN(c2nc(-c3ccccc3O)nc3ccc(F)cc23)C1` [Example 375, Neopentyl ((S)-1-(6-fluoro-2-(2-hydroxyphenyl)quinazolin-4-yl)pyrrolidin-3-yl)methylcarbamate], the IC50 was greater than 10 µM.

Consider `CC(C)COC(=O)NC[C@@H]1CCN(c2nc(-c3ccccc3O)nc3ccc(F)cc23)C1` [Example 376, Isobutyl ((S)-1-(6-fluoro-2-(2-hydroxyphenyl)quinazolin-4-yl)pyrrolidin-3-yl)methylcarbamate], for which the IC50 is greater than 10 µM.

Take `COCCOC(=O)NC[C@@H]1CCN(c2nc(-c3ccccc3O)nc3ccc(F)cc23)C1` [Example 377, 2-Methoxyethyl ((S)-1-(6-fluoro-2-(2-hydroxyphenyl)quinazolin-4-yl)pyrrolidin-3-yl)methylcarbamate]: the IC50 lay in the range of 2 to 10 µM.

As to `Cc1ccc2c(N3CC(C(=O)NCc4ccncc4)C3)nc(-c3ccccc3O)nc2c1` [Example 401, 1-(2-(2-Hydroxyphenyl)-7-methylquinazolin-4-yl)-N-((pyridin-4-yl)methyl)azetidine-3-carboxamide], the IC50 was greater than 10 µM.

Regarding `Cc1ccc2c(N3CC(C(=O)NCc4cccnc4)C3)nc(-c3ccccc3O)nc2c1` [Example 402, 1-(2-(2-Hydroxyphenyl)-7-methylquinazolin-4-yl)-N-((pyridin-3-yl)methyl)azetidine-3-carboxamide], the IC50 was greater than 10 µM.

As for `Cc1ccc2c(N3CC(C(=O)NCc4cccc(OC(F)(F)F)c4)C3)nc(-c3ccccc3O)nc2c1` [Example 403, N-(3-(Trifluoromethoxy)benzyl)-1-(2-(2-hydroxyphenyl)-7-methylquinazolin-4-yl)azetidine-3-carboxamide], the IC50 is greater than 10 µM.

Consider `Cc1ccc2c(N3CC(CNC(=O)OCC4CCCO4)C3)nc(-c3ccccc3O)nc2c1` (stereo not drawn) [Example 415], for which the IC50 was 2 to 10 µM.

Take `Cc1ccc2c(N3CC(NC(=O)OCC4CCOC4)C3)nc(-c3ccccc3O)nc2c1` (stereo not drawn) [Example 416]: the IC50 was greater than 10 µM.

As for `Cc1ccc2c(N3CC(CNC(=O)C4CCCO4)C3)nc(-c3ccccc3O)nc2c1` (stereo not drawn) [Example 417], the IC50 is greater than 10 µM.

For the compound `Cc1ccc2c(N3CC(CNC(=O)OCC(C)C)C3)nc(-c3ccccc3O)nc2c1` [Example 418], the IC50 lay in the range of 2 to 10 µM.

`COCCOC(=O)NCC1CN(c2nc(-c3ccccc3O)nc3cc(C)ccc23)C1` [Example 419]: the IC50 lay within 2 to 10 µM.

Consider `Cc1ccc2c(N3CC(CNC(=O)OC(C)C)C3)nc(-c3ccccc3O)nc2c1` [Example 420], for which the IC50 was less than 2 µM.

The IC50 is the concentration at which inhibition is half-maximal.
